Test results from article PMC11170914, “A distinct dimer configuration of a diatom Get3 forming a tetrameric complex with its tail-anchored membrane cargo” (BMC Biology, 2024).

Biological target: T1, Pt-Get3a (Phaeodactylum tricornutum, UniProt B7G933)
T1 construct: gene PHATRDRAFT_22896; full length, residues 1-349; expressed in E. coli; N-terminal 6His tag cleaved by TEV protease
T1 sequence (B7G933 1-349): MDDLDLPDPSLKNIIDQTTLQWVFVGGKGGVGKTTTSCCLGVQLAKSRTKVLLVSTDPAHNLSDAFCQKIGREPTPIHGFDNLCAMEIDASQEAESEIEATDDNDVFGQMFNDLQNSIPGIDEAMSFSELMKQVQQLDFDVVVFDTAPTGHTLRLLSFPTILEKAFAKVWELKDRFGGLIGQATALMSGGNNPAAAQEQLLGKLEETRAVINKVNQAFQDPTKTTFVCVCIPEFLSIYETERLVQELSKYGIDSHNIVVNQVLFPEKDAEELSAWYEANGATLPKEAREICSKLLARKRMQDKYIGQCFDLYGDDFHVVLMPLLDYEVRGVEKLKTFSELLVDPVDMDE
Assay: X-ray crystallography, […] Å
Settings: co-crystal with 2 mM ADP, 2 mM MgCl2, 2 mM AlCl3, 8 mM NaF, pH 4.7, 25 °C; Mg2+/ADP in nucleotide-binding domain

## Nc1ncnc2c1ncn2[C@@H]1O[C@H](COP(=O)(O)OP(=O)(O)O)[C@@H](O)[C@H]1O [ADP]
  X-ray crystallography, 2.32 Å: an ADP and a magnesium ion were observed in the two crystallographic independent monomers
